Assay results published in article PMC10584170, “Machine learning-based phenotypic imaging to characterise the targetable biology of Plasmodium falciparum male gametocytes for the development of transmission-blocking antimalarials” (PLOS Pathogens, 2023).
Where two headings read alike, the source gives them in different places.

Experiments:
[1] = system: P. falciparum female gametocytes; experiment: P. falciparum Dual Gamete Formation Assay (PfDGFA), female readout (Pfs25-positive female gametes); format: cell-based, Plasmodium falciparum NF54; conditions: for IC50: this study, read-out: Pf DGFA IC50 FEM
Procedure, shortened: (§1)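 Mature NF54 gametocytes (day 14) were incubated with compound for 24 h at 37°C under 1% O2/3% CO2, then triggered with xanthurenic acid ookinete medium plus Cy3-anti-Pfs25. Exflagellation was imaged by brightfield; after a further 24 h at 28°C, Pfs25-positive female gametes were imaged by fluorescence and counted by automated image analysis.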

[2] = system: P. berghei ookinete development; experiment: P. berghei Ookinete Development Assay (PbODA); format: cell-based, Plasmodium berghei; conditions: Mean TOX HepG2 over Pb ODA value; GREEN = >10-fold; RED = <10-fold
Source text: (§2) Fig 1 The activity of TCAMS compound identified in the Pf DGFA screen. (A) 85 molecules were confirmed active in the Pf DGFA. 58 were previously identified in one or more transmission-blocking screens. […] No molecule was identified with >4.7-fold greater activity against female gametocytes. Abbreviations (IC50 = concentration giving 50% inhibition, PbODA = P. berghei Ookinete Development Assay, PfDGFA = P. falciparum Dual Gamete Formation Assay, PfFGAA = P. falciparum Female Gametocyte Activation Assay, PfGCT = P. falciparum Gametocyte Viability ATP Assay).

HepG2 cells [3] = experiment: HepG2 cytotoxicity counter-screen; conditions: for Mean TOX: mean of the HepG2 TOX50 values; for DGFA Tox50 HepG2: HepG2 value reported with the DGFA screen
[4] = system: P. falciparum male gametocytes; experiment: P. falciparum Dual Gamete Formation Assay (PfDGFA), male readout (exflagellation); format: cell-based, Plasmodium falciparum NF54; conditions: for IC50: this study, read-out: Pf DGFA IC50 MALE
Procedure, shortened: as §1

HepG2 cells [5] = conditions: cited from earlier work
[6] = system: P. falciparum female gametocytes; experiment: P. falciparum Female Gametocyte Activation Assay (PfFGAA); format: cell-based, Plasmodium falciparum; conditions: Mean TOX HepG2 over FGAA IC50; GREEN = >10-fold; RED = <10-fold
Source text: as §2

[7] = system: P. falciparum female gametocytes; design: method as in Miguel-Blanco et al 2017; conditions: ref Miguel-Blanco et al 2017; read-out: Pf female gametogenesis FGAA IC50; cited from earlier work

SMILES	Cytotox ratio Pf Female [1]	Cytotox ratio Pb Ookinete [2]	Mean TOX (HepG2 cells [3])	Cytotox ratio Pf Male [4]	IC50 [4]	ODA TOX50 HepG2 (HepG2 cells [5])	IC50 [1]	Cytotox ratio Pf FGAA [6]	FGAA TOX50 HepG2 (HepG2 cells [5])	IC50 [7]	DGFA Tox50 HepG2 (HepG2 cells [3])
CNC(=O)c1ccccc1Nc1nc(Nc2ccc(N3CCOCC3)cc2)ncc1Cl.Cl [TC28]	0.223	3489.3	2.23 µM	12.4	180 nM	3.631 µM	–	–	–	–	–
Cc1cccc(Nc2nc(N[C@@H]3CCCNC3)nc3cc[nH]c(=O)c23)c1.O=C(O)C(F)(F)F [TC29]	0.532	3922.6	4.09 µM	19.5	210 nM	4.57 µM	7690 nM	2.2	3.25 µM	1850 nM	–
COc1ccc2nc(-c3cc(-c4ccc(NC(=O)C(C)C)cc4)cnc3N)[nH]c2c1 [TC32]	0.85	12253.3	8.50 µM	19.8	430 nM	8.61 µM	–	–	–	–	–
Cl.NC(=O)c1ccccc1Nc1nc(Nc2cccc(N3CCN(CCO)CC3)c2)ncc1Cl [TC33]	2.7	311828.0	27.38 µM	58.3	470 nM	41.687 µM	–	–	–	–	–
Cn1c(Sc2ncnc3sccc23)nc2ccccc21 [TC34]	178.6	156933.9	100.00 µM	138.9	720 nM	100 µM	560 nM	80.0	100 µM	1250 nM	100 µM
Cc1cc(Nc2ncc(C#N)c(Nc3ccccc3C(N)=O)n2)ccc1N1CCN(C)CC1.Cl [TC37]	0.244	66058.5	1.80 µM	45.1	40 nM	3.981 µM	7400 nM	1.1	0.4 µM	1670 nM	–
O=C(O)C(F)(F)F.O=c1[nH]ccc2nc(N[C@@H]3CCCNC3)nc(Nc3ccc(S(=O)(=O)N4CCOCC4)cc3)c12 [TC42]	4.1	23182.4	33.80 µM	563.3	60 nM	45.71 µM	8170 nM	–	–	–	–
Cc1ccc(S(=O)(=O)N(CCCNCc2cccc(O)c2)c2ccccc2)cc1 [TC44]	4.8	26220.7	36.97 µM	119.3	310 nM	34.6737 µM	7660 nM	32.4	44.67 µM	1140 nM	–
Cc1ccc(-n2c(Sc3ncnc4sccc34)nnc2N2CCCC2)cc1 [TC46]	315.2	177427.8	78.79 µM	207.3	380 nM	74.1 µM	250 nM	160.8	89.13 µM	490 nM	–
CN1CCN(c2ccc(Nc3ncc(C#N)c(Nc4ccccc4C(N)=O)n3)cc2)CC1.Cl [TC49]	0.335	95106.6	3.07 µM	102.3	30 nM	2.427 µM	9170 nM	–	–	–	–
COc1ccc(Nc2ncc(OC)c(Nc3ccccc3C(N)=O)n2)cc1N1CCN(C)CC1.O=CO [TC59]	1.2	19018.5	9.37 µM	52.0	180 nM	13.49 µM	7910 nM	–	–	–	–
Cc1cc(C(=O)OCC(=O)Nc2c(C)n(C)n(-c3ccccc3)c2=O)c(C)n1-c1ccc(F)cc1 [TC63]	41.8	166949.3	59.75 µM	31.4	1900 nM	19.5 µM	1430 nM	–	–	–	100 µM
COc1ccc2nc(-c3cc(-c4ccc(NC(C)=O)cc4)cnc3N)[nH]c2c1 [TC69]	0.755	10513.6	7.55 µM	14.0	540 nM	12.02 µM	–	–	–	–	–
C#C[C@H]1O[C@@H](n2cnc3c(Nc4cc(Br)cc(C(F)(F)F)c4)ncnc32)[C@H](O)[C@@H]1O [TC70]	7.9	88432.3	78.77 µM	262.6	300 nM	57.54 µM	–	–	–	–	100 µM
COc1ccc(Nc2ncc(Cl)c(Nc3cccnc3C(N)=O)n2)cc1N1CCN(C)CC1.Cl [TC75]	0.7	11414.1	7.10 µM	17.8	400 nM	11.22 µM	–	–	–	–	–
CCS(=O)(=O)Nc1ccc2c(c1)/C(=C(/Nc1ccc(CN3CCCCC3)cc1)c1ccccc1)C(=O)N2 [TC81]	0.9	6770.0	8.77 µM	877.0	10 nM	16.98 µM	–	–	–	–	–
